Test results reported in patent US20050129610A1, “Imaging agents and methods of imaging alpha7-nicotinic cholinergic receptor” (Johns Hopkins University, priority 2003, published 2005).
Where two headings read alike, the source gives them in different places.

Tests used:
rat α4β2 nAChR = rat α4β2 nAChR (Rattus norvegicus, UniProt P09483+P12390); assay: Receptor binding assay, rat α4β2 nAChR (selectivity); conditions: binding selectivity vs rat α4β2 nAChR
Description: (§1) Receptor Binding Assays. The affinities of 1-4 for the rat α4β2 and α7 nAChRs were determined as described previously (Mullen, et al., J. Med. Chem.; 2000;43(22):4045-50). Affinities for the rat 5-HT3 receptor were also determined as described previously (Macor, et al., Bioorg. Med. Chem. Lett. 2001;11(3):319-21). All Ki determinations were done using 5-7 concentrations. […] There was a wide margin in selectivity compared to the α4β2 receptor subtype. Also included are the relative binding affinities to the 5-HT3 receptor, which has high sequence homology to the α7-nAChR.

rat 5-HT3 receptor = molecular target: T1, rat 5-HT3 receptor (Rattus norvegicus, UniProt P35563); assay: Receptor binding assay, rat 5-HT3 receptor (selectivity); conditions: binding selectivity vs rat 5-HT3 receptor
T1 sequence (P35563 24-483): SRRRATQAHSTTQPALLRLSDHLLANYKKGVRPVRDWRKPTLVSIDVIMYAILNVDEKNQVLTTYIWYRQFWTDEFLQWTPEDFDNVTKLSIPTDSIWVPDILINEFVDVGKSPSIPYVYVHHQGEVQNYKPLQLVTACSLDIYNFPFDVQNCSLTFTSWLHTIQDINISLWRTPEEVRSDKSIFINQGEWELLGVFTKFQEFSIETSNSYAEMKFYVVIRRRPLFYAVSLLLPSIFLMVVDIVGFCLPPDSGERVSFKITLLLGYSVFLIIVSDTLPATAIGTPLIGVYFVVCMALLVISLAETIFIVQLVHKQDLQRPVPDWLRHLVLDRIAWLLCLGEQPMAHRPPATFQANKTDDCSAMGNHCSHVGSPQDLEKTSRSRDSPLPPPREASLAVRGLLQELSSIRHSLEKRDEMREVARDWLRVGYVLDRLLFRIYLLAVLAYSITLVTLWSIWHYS
Description: as §1

rat α7 nAChR = rat α7 nAChR (Rattus norvegicus, UniProt Q05941); assay: Receptor binding assay, rat α7 nAChR
Description: as §1

α7-nAChR = molecular target: T2, α7-nAChR (Mus musculus, UniProt P49582); assay: In vivo binding specificity (receptor blockade) study; set-up: species or system male CD-1 mice
T2 construct: Male CD-1 mice weighing between 20 and 25 g received an injection; from tissue; host or cells: brain of living male CD-1 mice (hippocampus, cortex and other regions)
Description: (§2) Rodent In Vivo Biodistribution Studies of 1-4. Male CD-1 mice weighing between 20 and 25 g received an injection of 3.7 MBq (100 μCi) for 1 and 2 and 0.67 MBq ([…]) for 3 and 4 through the tail vein. The corresponding amounts administered were 0.2-0.8 μg/kg for 1 and 2 and 0.01-0.02 μg/kg for 3 and 4. For kinetic studies of 1-4, the mice were killed by cervical dislocation at 5, 15, 30 and 60 min after intravenous injection of radiotracer in 200 μL saline vehicle. The brains were removed and placed on ice, and the cerebellum, olfactory bulb, hypothalamus, hippocampus, striatum, cortex, brain stem and thalamus were harvested. A 45 min time point was obtained for 2 and one at 120 min for 3 and 4. The tissue samples were weighed and their radioactivity determined in an automated □ counter (1282 Compugamma CS; Pharmacia/LKB Nuclear Inc., Gaithersburg, Md.). The radioactivity concentration in aliquots of the injected tracer were determined along with the samples and served as standards for the calculation of percentage injected dose per gram of tissue (% ID/g). To assess binding specificity, subgroups of mice were treated with 10 mg/kg nicotine (for D or increasing doses of unlabeled 4 (0.01-10 mg/kg) 5 min prior to injection of radiotracer. Mice were killed at 30 and 60 min after blockade for 3 and 4, respectively.

[1] = Rodent in vivo biodistribution (brain kinetics); set-up: species or system male CD-1 mice; conditions: for Brain distribution, F. CTX / Brain distribution, S. COLL / Brain distribution, CB / Brain distribution, CTX / Brain distribution, HIPP / Brain distribution, STR / Brain distribution, THAL / Brain distribution, HYPO: mice; for Brain distribution, CB: cerebellum; for Brain distribution, CTX: cortex; for Brain distribution, HIPP: hippocampus; for Regional selectivity of brain uptake: all time points, in words; for Uptake within the brain (in words): i.v. radiotracer; for Brain distribution, STR: striatum; for Brain distribution, THAL: thalamus; for Brain distribution, HYPO: hypothalamus; for Uptake/retention in target tissue (hippocampus): mouse hippocampus vs other brain substructures, FIG. 1 / FIG. 3
Description: as §2

[2] = rat α7 nAChR, nonradioactive analogs, 5-7 concentrations, read-out: Ki
[3] = 30 min, low specific activity (LSA)
[4] = 60 min, low specific activity (LSA)

Sequence of rat α7 nAChR (Q05941 23-502): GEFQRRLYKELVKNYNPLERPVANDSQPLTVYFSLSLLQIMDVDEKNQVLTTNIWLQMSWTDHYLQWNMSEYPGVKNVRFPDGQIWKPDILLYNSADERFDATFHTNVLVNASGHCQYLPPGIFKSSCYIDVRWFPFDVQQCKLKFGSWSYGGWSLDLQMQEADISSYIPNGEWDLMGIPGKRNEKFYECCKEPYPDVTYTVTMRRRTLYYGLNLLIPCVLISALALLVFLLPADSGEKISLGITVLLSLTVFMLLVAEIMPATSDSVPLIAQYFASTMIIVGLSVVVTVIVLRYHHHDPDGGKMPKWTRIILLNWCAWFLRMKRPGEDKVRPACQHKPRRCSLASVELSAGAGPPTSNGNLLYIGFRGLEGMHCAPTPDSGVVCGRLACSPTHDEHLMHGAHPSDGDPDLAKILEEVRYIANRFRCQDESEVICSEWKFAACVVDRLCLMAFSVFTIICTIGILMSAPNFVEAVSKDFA
Sequence of rat α4β2 nAChR (P09483 31-630): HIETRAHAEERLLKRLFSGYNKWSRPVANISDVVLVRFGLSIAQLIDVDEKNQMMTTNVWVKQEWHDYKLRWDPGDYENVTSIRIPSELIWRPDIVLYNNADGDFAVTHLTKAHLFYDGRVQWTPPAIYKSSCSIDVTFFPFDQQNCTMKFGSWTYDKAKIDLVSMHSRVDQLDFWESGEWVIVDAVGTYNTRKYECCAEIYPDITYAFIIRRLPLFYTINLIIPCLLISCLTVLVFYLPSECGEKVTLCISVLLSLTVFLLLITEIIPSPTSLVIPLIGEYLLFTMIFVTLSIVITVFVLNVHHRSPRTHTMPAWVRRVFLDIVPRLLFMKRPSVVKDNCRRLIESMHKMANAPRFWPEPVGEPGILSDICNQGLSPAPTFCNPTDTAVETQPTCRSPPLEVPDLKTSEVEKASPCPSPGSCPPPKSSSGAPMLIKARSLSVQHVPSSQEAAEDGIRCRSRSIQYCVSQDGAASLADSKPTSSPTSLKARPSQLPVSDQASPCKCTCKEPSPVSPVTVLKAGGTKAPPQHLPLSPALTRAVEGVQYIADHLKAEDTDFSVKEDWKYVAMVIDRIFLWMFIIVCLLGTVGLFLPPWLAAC
Sequence of rat α4β2 nAChR (P12390 25-500): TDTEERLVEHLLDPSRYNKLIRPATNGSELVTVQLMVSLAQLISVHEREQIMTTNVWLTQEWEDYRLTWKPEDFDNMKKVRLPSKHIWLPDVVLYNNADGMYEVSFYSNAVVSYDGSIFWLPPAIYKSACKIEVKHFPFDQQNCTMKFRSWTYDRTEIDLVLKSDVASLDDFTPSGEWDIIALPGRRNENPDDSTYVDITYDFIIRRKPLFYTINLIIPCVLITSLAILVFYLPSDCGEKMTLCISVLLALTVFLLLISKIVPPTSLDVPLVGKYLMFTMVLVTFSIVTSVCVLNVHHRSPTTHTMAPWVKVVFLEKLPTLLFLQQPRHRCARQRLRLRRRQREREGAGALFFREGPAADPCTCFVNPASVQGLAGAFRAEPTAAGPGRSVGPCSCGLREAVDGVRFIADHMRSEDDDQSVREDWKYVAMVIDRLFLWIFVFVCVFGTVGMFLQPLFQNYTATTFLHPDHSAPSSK
T2 sequence (P49582 23-502): as the sequence (Q05941 23-502) above, with A402T counted along it

## O=C(NC1CN2CCC1CC2)c1ccc(Br)cc1 (centres unmarked) [3 (precursor)]
Rat α4β2 nAChR
  α7/α4: 36000 (1)
Rat 5-HT3 receptor
  α7/5-HT3: 280 (1)
Rat α7 nAChR; [2]
  Ki: 18 nM

## [11CH3]N(Cc1ccccc1)c1cnc2c(c1)CC1(CN3CCC1CC3)O2 (stereo not drawn) [Compound 1, (2′R)-N-[^11C]methyl-N-(phenylmethyl)-spiro[1-azabicyclo[2.2.2]octane-3,2′(3′H)-furo[2,3-b]pyridin]-5′-amine]
Rat α4β2 nAChR
  α7/α4: >22,000 (1)
α7-nAChR; LSA determinations at 30 and 60 min, mice
  Receptor blockade in low specific activity (LSA) studies: nor was there evidence of receptor blockade
Rat 5-HT3 receptor
  α7/5-HT3: 18 (1)
[1]; 5 min post i.v. injection
  Brain distribution, F. CTX: 1.77 ± 0.36 % ID/g
  Brain distribution, S. COLL: 1.49 ± 0.50 % ID/g
  Brain distribution, CB: 1.66 ± 0.50 % ID/g
  Brain distribution, CTX: 1.46 ± 0.48 % ID/g
  Brain distribution, HIPP: 1.24 ± 0.33 % ID/g
  Brain distribution, STR: 1.47 ± 0.38 % ID/g
  Brain distribution, THAL: 1.61 ± 0.61 % ID/g
[1]; 15 min post i.v. injection
  Brain distribution, F. CTX: 1.38 ± 0.25 % ID/g
  Brain distribution, S. COLL: 1.42 ± 0.26 % ID/g
  Brain distribution, CB: 1.38 ± 0.32 % ID/g
  Brain distribution, CTX: 1.28 ± 0.21 % ID/g
  Brain distribution, HIPP: 1.12 ± 0.15 % ID/g
  Brain distribution, STR: 1.20 ± 0.15 % ID/g
  Brain distribution, THAL: 1.35 ± 0.28 % ID/g
[1]; [3]
  Brain distribution, F. CTX: 1.28 ± 0.07 % ID/g
  Brain distribution, S. COLL: 1.04 ± 0.15 % ID/g
  Brain distribution, CB: 1.00 ± 0.06 % ID/g
  Brain distribution, CTX: 1.16 ± 0.13 % ID/g
  Brain distribution, HIPP: 1.27 ± 0.09 % ID/g
  Brain distribution, STR: 1.20 ± 0.05 % ID/g
  Brain distribution, THAL: 1.23 ± 0.12 % ID/g
[1]; 30 min post i.v. injection
  Brain distribution, F. CTX: 0.95 ± 0.06 % ID/g
  Brain distribution, S. COLL: 1.09 ± 0.14 % ID/g
  Brain distribution, CB: 1.16 ± 0.19 % ID/g
  Brain distribution, CTX: 0.89 ± 0.11 % ID/g
  Brain distribution, HIPP: 0.91 ± 0.05 % ID/g
  Brain distribution, STR: 0.93 ± 0.10 % ID/g
  Brain distribution, THAL: 1.11 ± 0.06 % ID/g
[1]; [4]
  Brain distribution, F. CTX: 1.07 ± 0.15 % ID/g
  Brain distribution, S. COLL: 0.88 ± 0.16 % ID/g
  Brain distribution, CB: 0.65 ± 0.07 % ID/g
  Brain distribution, CTX: 0.86 ± 0.15 % ID/g
  Brain distribution, HIPP: 0.98 ± 0.16 % ID/g
  Brain distribution, STR: 0.75 ± 0.22 % ID/g
  Brain distribution, THAL: 0.81 ± 0.06 % ID/g
[1]; 60 min post i.v. injection
  Brain distribution, F. CTX: 0.79 ± 0.11 % ID/g
  Brain distribution, CB: 0.84 ± 0.05 % ID/g
  Brain distribution, CTX: 0.69 ± 0.10 % ID/g
  Brain distribution, HIPP: 0.81 ± 0.10 % ID/g
  Brain distribution, STR: 0.69 ± 0.06 % ID/g
  Brain distribution, THAL: 0.77 ± 0.10 % ID/g
[1]; mouse brain
  Regional selectivity of brain uptake: No α7-nAChR-selective, regional brain uptake
  Uptake within the brain (in words): limited but measurable uptake within the brain
Rat α7 nAChR
  Ki: 0.54 nM

## [11CH3]Sc1ccc(C(=O)NC2CN3CCC2CC3)cc1 [Compound 2, N—(R)-1-aza-bicyclo[2.2.2]oct-3-yl-4-[^11C]methylsulfanyl-benzamide]
Rat α4β2 nAChR
  α7/α4: 14,000 (1)
Rat 5-HT3 receptor
  α7/5-HT3: 1100 (1)
[1]; 5 min post i.v. injection
  Brain distribution, CB: 0.23 ± 0.01 % ID/g
  Brain distribution, CTX: 0.16 ± 0.04 % ID/g
  Brain distribution, HIPP: 0.15 ± 0.01 % ID/g
  Brain distribution, HYPO: 0.30 ± 0.02 % ID/g
  Brain distribution, STR: 0.22 ± 0.06 % ID/g
  Brain distribution, THAL: 0.18 ± 0.02 % ID/g
[1]; 15 min post i.v. injection
  Brain distribution, CB: 0.26 ± 0.04 % ID/g
  Brain distribution, CTX: 0.17 ± 0.03 % ID/g
  Brain distribution, HIPP: 0.24 ± 0.04 % ID/g
  Brain distribution, HYPO: 0.55 ± 0.05 % ID/g
  Brain distribution, STR: 0.37 ± 0.05 % ID/g
  Brain distribution, THAL: 0.26 ± 0.09 % ID/g
[1]; 30 min post i.v. injection
  Brain distribution, CB: 0.14 ± 0.03 % ID/g
  Brain distribution, CTX: 0.14 ± 0.05 % ID/g
  Brain distribution, HIPP: 0.14 ± 0.03 % ID/g
  Brain distribution, HYPO: 0.22 ± 0.04 % ID/g
  Brain distribution, STR: 0.16 ± 0.03 % ID/g
  Brain distribution, THAL: 0.13 ± 0.03 % ID/g
[1]; 45 min post i.v. injection
  Brain distribution, CB: 0.09 ± 0.01 % ID/g
  Brain distribution, CTX: 0.10 ± 0.02 % ID/g
  Brain distribution, HIPP: 0.13 ± 0.02 % ID/g
  Brain distribution, HYPO: 0.22 ± 0.09 % ID/g
  Brain distribution, STR: 0.15 ± 0.05 % ID/g
  Brain distribution, THAL: 0.10 ± 0.01 % ID/g
[1]; 60 min post i.v. injection
  Brain distribution, CB: 0.08 ± 0.01 % ID/g
  Brain distribution, CTX: 0.10 ± 0.02 % ID/g
  Brain distribution, HIPP: 0.12 ± 0.02 % ID/g
  Brain distribution, HYPO: 0.27 ± 0.05 % ID/g
  Brain distribution, STR: 0.18 ± 0.05 % ID/g
  Brain distribution, THAL: 0.14 ± 0.03 % ID/g
[1]; mouse brain
  Regional selectivity of brain uptake: no regional selectivity
  Uptake within the brain (in words): limited uptake
Rat α7 nAChR
  Ki: 5.8 nM

## O=C(NC1CN2CCC1CC2)c1ccc([125I])cc1 [Compound 3, N-(R)-1-Aza-bicyclo[2.2.2]oct-3-yl-4-[^125I]iodo-benzamide]
α7-nAChR; 10 mg/kg nicotine 5 min before radiotracer, mice killed at 30 min, FIG. 2
  Blocking study (nicotine blockade): failed to demonstrate regionally-selective blockade, although significantly decreased radiotracer uptake was demonstrated in the regions studied
[1]; mouse brain, FIG. 1
  Uptake values within the brain: < 0.4 % ID/g
[1]
  Uptake/retention in target tissue (hippocampus): retention within hippocampus, a target tissue, was demonstrated

## [125I]c1occc1-c1cnc2c(c1)CC1(CN3CCC1CC3)O2 (stereo not drawn) [Compound 4, (2′R)-5′-(2-[^125I]iodo-3-furanyl)spiro[1-azabicyclo[2.2.2]octane]-3,2′(3′H)-furo[2,3-b]pyridine]
α7-nAChR; unlabeled 4 (0.01-10 mg/kg) 5 min before radiotracer, mice killed at 60 min, FIG. 4
  Receptor blockade study: significant blockade in the target tissue and slightly less so in cortex
[1]; mouse brain
  Uptake within the brain (in words): gained ready access to the brain
[1]
  Uptake/retention in target tissue (hippocampus): modest but higher uptake in target tissue (hippocampus) than within other brain substructures
Rat α7 nAChR; [2]
  Ki: 0.26 nM
